Assay results published in US5529983A, “Use of small peptides in the treatment of psoriasis” (The United States of America as represented by the …, priority 1995, dated 1996).

Legend:
[1] = Toxicity of peptide treatment in human patients; assay type: in vivo
Description: Toxicity. As to toxicity, the complete schedule of peptide therapeutic agents above gave negative evidence of toxicity.

[2] = Six-week intravenous toxicity study in hamsters; assay type: in vivo
Description: [D-ala^1 ]peptide-T-amide was given twice daily intravenously to hamsters for six weeks. […] Liver enzymes and kidney enzymes were normal after injection.

[3] = after injection twice daily intravenously for six weeks

Row | SMILES | toxicity in the liver or kidney ([1]; In humans) | toxicity ([1]; preliminary findings, blood pressure fell when the infusion rate was increased) | Liver enzymes [2, 3] | kidney enzymes [2, 3] | histologic studies on all organs ([2]; twice daily intravenously for six weeks)
1 | C[C@H](N)C(=O)N[C@@H](CO)C(=O)N[C@H](C(=O)N[C@H](C(=O)N[C@H](C(=O)N[C@@H](CC(N)=O)C(=O)N[C@@H](Cc1ccc(O)cc1)C(=O)N[C@H](C(=O)O)[C@@H](C)O)[C@@H](C)O)[C@@H](C)O)[C@@H](C)O [Peptide T] | no toxicity apparent | non-toxic with the exception of lowering the blood pressure on one occasion | – | – | –
2 | C[C@@H](N)C(=O)N[C@@H](CO)C(=O)N[C@H](C(=O)N[C@H](C(=O)N[C@H](C(=O)N[C@@H](CC(N)=O)C(=O)N[C@@H](Cc1ccc(O)cc1)C(=O)N[C@H](C(N)=O)[C@@H](C)O)[C@@H](C)O)[C@@H](C)O)[C@@H](C)O [[D-ala^1]peptide-T-amide] | – | – | normal | normal | no significant difference
